Data published in PubChem BioAssay AID1755 (Sanford-Burnham Center for Chemical Genomics, 2009).
Values joined by “and” are separate entries in the source; they are usually repeats but may differ in a detail not shown here. Equal entries are not always repeated. Active and inactive are the calls of the source. No rule for the calls is given here.

System: MDA-MB-435 TRAIL-induced apoptosis potentiation, viability
Assay: TRAIL apoptosis potentiation, viability loss, SAR follow-up, cell-based, MDA-MB-435, analog series (AID 1755)

SMILES	IC50
CSc1nc(-c2ccc(C)cc2)nc(C(Cl)Cl)n1	4.81 µM and 3.27 µM
CC(Sc1nc(-c2ccccc2)cc(C(F)(F)F)n1)C(=O)N1CCCC1 (stereo not drawn)	> 10 µM (inactive)
CCSc1cc(N2CCCC2)nc(-c2ccc(Cl)cc2)n1	> 10 µM (inactive)
CSc1nc(-c2ccccc2)nc(-c2ccccc2)n1	> 10 µM (inactive)
CSc1nc(-c2ccccc2)nc(-c2ccccc2OC(C)=O)n1	> 10 µM (inactive)
COc1cc(-c2ccccc2)[nH]c(=S)n1	> 10 µM (inactive)
CCSc1nc(-c2ccccc2)cc(=O)[nH]1	> 10 µM (inactive)
CSc1nc(-c2ccccc2)nc(C(C)C)n1	> 10 µM (inactive)
